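Where inhibition never reached the appropriate level, the endpoint shown equals the highest concentration tested. Otherwise, values were interpolated linearly from a five-concentration, 48-hour dose response in 96-well plates. GI50 marks 50% less growth. TGI is the concentration that stops growth completely.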
Legend:
Assay in all cases: growth of human tumour cells (NCI), 48 h
[1] = system: CCRF-CEM leukemia
[2] = system: MDA-MB-231 breast
[3] = system: MOLT-4 leukemia
[4] = system: SNB-19 CNS
[5] = system: NCI-H460 lung
[6] = system: PC-3 prostate
[7] = system: SK-MEL-28 melanoma
[8] = system: UACC-62 melanoma
[9] = system: SF-268 CNS
[10] = system: A549 NSCLC
[11] = system: MALME-3M melanoma
[12] = system: RPMI-8226 leukemia
[13] = system: NCI/ADR-RES ovarian
[14] = system: OVCAR-3 ovarian
[15] = system: UACC-257 melanoma
[16] = system: BT-549 breast
[17] = system: SK-OV-3 ovarian
[18] = system: HOP-92 NSCLC
[19] = system: U251 CNS
[20] = system: EKVX NSCLC
[21] = system: COLO 205 colon
[22] = system: HT29 colon
[23] = system: KM12 colon
[24] = system: SW-620 colon
[25] = system: OVCAR-4 ovarian
[26] = system: HOP-62 NSCLC
[27] = system: RXF 393 renal
[28] = system: UO-31 renal
[29] = system: DU-145 prostate
[30] = system: NCI-H522 lung
[31] = system: SN12C renal
[32] = system: OVCAR-5 ovarian
[33] = system: K-562 leukemia
[34] = system: IGROV1 ovarian
[35] = system: SF-295 CNS
[36] = system: HCT-15 colon
[37] = system: A498 renal
[38] = system: HCC-2998 colon
[39] = system: SNB-75 CNS
[40] = system: HS 578T breast
[41] = system: OVCAR-8 ovarian
[42] = system: 786-0 renal
[43] = system: ACHN renal
[44] = system: NCI-H226 lung
[45] = system: HCT-116 colon
[46] = system: CAKI-1 renal
[47] = system: MCF7 breast
[48] = system: M14 melanoma
[49] = system: TK-10 renal
[50] = system: T-47D breast
[51] = system: MDA-MB-435
[52] = system: SK-MEL-5 melanoma
[53] = system: SF-539 CNS
[54] = system: LOX IMVI melanoma
[55] = system: SR leukemia
[56] = system: HL-60(TB) leukemia
[57] = system: SK-MEL-2 melanoma

## O=S(=O)(NCCCNc1nccc(-c2[nH]c(-c3ccccc3)nc2-c2ccc(F)c(O)c2)n1)c1ccc(C(F)(F)F)cc1
[1]
  GI50: 3.46 µM
  TGI: > 100 µM
[2]
  GI50: 2.75 µM
  TGI: 8.44 µM
[3]
  GI50: 3.02 µM
  TGI: > 100 µM
[4]
  GI50: 3.51 µM
  TGI: 11.1 µM
[5]
  GI50: 2.26 µM
  TGI: 5.07 µM
[6]
  GI50: 3.08 µM
  TGI: > 100 µM
[7]
  GI50: 1.61 µM
  TGI: 4.46 µM
[8]
  GI50: 1.29 µM
  TGI: 2.82 µM
[9]
  GI50: 2.55 µM
  TGI: 7.25 µM
[10]
  GI50: 3.04 µM
  TGI: 12.4 µM
[11]
  GI50: 1.21 µM
  TGI: 3.47 µM
[12]
  GI50: 2.49 µM
  TGI: 7.05 µM
[13]
  GI50: 3.88 µM
  TGI: 18.9 µM
[14]
  GI50: 2.62 µM
  TGI: 5.49 µM
[15]
  GI50: 2.48 µM
  TGI: 7.33 µM
[16]
  GI50: 2.53 µM
  TGI: 7.12 µM
[17]
  GI50: 3.46 µM
  TGI: 18.8 µM
[18]
  GI50: 2.15 µM
  TGI: 9.16 µM
[19]
  GI50: 3.15 µM
  TGI: 9.85 µM
[20]
  GI50: 3.61 µM
  TGI: 16 µM
[21]
  GI50: 3.06 µM
  TGI: 9.77 µM
[22]
  GI50: 2.96 µM
[23]
  GI50: 3.05 µM
  TGI: 9.09 µM
[24]
  GI50: 4.09 µM
  TGI: 15 µM
[25]
  GI50: 3.62 µM
  TGI: 24.1 µM
[26]
  GI50: 2.89 µM
  TGI: 10.9 µM
[27]
  GI50: 2.3 µM
  TGI: 5 µM
[28]
  GI50: 2.69 µM
  TGI: 7.17 µM
[29]
  GI50: 3.06 µM
  TGI: 11.5 µM
[30]
  GI50: 2.42 µM
  TGI: 7.12 µM
[31]
  GI50: 2.59 µM
  TGI: 7.62 µM
[32]
  GI50: 3.12 µM
  TGI: 9.26 µM
[33]
  GI50: 2.87 µM
  TGI: > 100 µM
[34]
  GI50: 2.41 µM
  TGI: 6.72 µM
[35]
  GI50: 1.88 µM
  TGI: 3.58 µM
[36]
  GI50: 3.04 µM
  TGI: 9.62 µM
[37]
  GI50: 2.68 µM
  TGI: 7.38 µM
[38]
  GI50: 2.8 µM
  TGI: 6.53 µM
[39]
  GI50: 2.22 µM
  TGI: 7.79 µM
[40]
  GI50: 2.71 µM
  TGI: 7.12 µM
[41]
  GI50: 3.37 µM
  TGI: > 100 µM
[42]
  GI50: 3.52 µM
  TGI: 11.7 µM
[43]
  GI50: 2.85 µM
  TGI: 8.78 µM
[44]
  GI50: 3.85 µM
  TGI: 16.7 µM
[45]
  GI50: 2.18 µM
  TGI: 5.11 µM
[46]
  GI50: 2.57 µM
  TGI: 13.8 µM
[47]
  GI50: 2.82 µM
  TGI: 10.4 µM
[48]
  GI50: 1.46 µM
  TGI: 4.09 µM
[49]
  GI50: 3.79 µM
  TGI: 28.1 µM
[50]
  GI50: 2.56 µM
  TGI: 22 µM
[51]
  GI50: 1.59 µM
  TGI: 3.7 µM
[52]
  GI50: 1.69 µM
  TGI: 3.23 µM
[53]
  GI50: 2 µM
  TGI: 3.85 µM
[54]
  GI50: 2.01 µM
  TGI: 4.78 µM

## C[C@@H](Nc1c(C#N)cnc2ccc(-c3cnc(N)nc3)cc12)c1ccccc1
[1]
  GI50: 1.89 µM
  TGI: > 100 µM
[2]
  GI50: 1.82 µM
  TGI: 50.4 µM
[3]
  GI50: 1.58 µM
  TGI: > 100 µM
[4]
  GI50: 2.23 µM
  TGI: 60.6 µM
[5]
  GI50: 1.73 µM
  TGI: 44.6 µM
[6]
  GI50: 1.54 µM
  TGI: 10.1 µM
[7]
  GI50: 2.95 µM
  TGI: 26.9 µM
[8]
  GI50: 2.24 µM
  TGI: 10 µM
[9]
  GI50: 3.22 µM
  TGI: > 100 µM
[10]
  GI50: 1.55 µM
  TGI: 13.7 µM
[11]
  GI50: 1.59 µM
  TGI: 7.83 µM
[12]
  GI50: 0.588 µM
  TGI: 4.92 µM
[13]
  GI50: 2.87 µM
  TGI: 18.1 µM
[14]
  GI50: 2.74 µM
  TGI: > 100 µM
[15]
  GI50: 2.79 µM
  TGI: 17.1 µM
[16]
  GI50: 1.05 µM
  TGI: 6.34 µM
[17]
  GI50: 2.16 µM
  TGI: 7.38 µM
[18]
  GI50: 0.185 µM
  TGI: 1.11 µM
[19]
  GI50: 2.13 µM
  TGI: 77.5 µM
[20]
  GI50: 0.552 µM
  TGI: 5 µM
[21]
  GI50: 3.06 µM
  TGI: 13.4 µM
[22]
  GI50: 2.43 µM
  TGI: > 100 µM
[23]
  GI50: 2.67 µM
  TGI: > 100 µM
[55]
  GI50: 2.38 µM
  TGI: > 100 µM
[24]
  GI50: 3.73 µM
  TGI: > 100 µM
[25]
  GI50: 1.22 µM
  TGI: 7.87 µM
[26]
  GI50: 1.98 µM
  TGI: 27.8 µM
[27]
  GI50: 0.886 µM
  TGI: 4.59 µM
[28]
  GI50: 0.31 µM
  TGI: 8.9 µM
[29]
  GI50: 1.91 µM
  TGI: > 100 µM
[30]
  GI50: 1.73 µM
  TGI: 10.6 µM
[31]
  GI50: 1.14 µM
  TGI: 24.2 µM
[32]
  GI50: 1.62 µM
  TGI: 83.8 µM
[33]
  GI50: 2.49 µM
  TGI: > 100 µM
[34]
  GI50: 0.454 µM
  TGI: 3.87 µM
[35]
  GI50: 1.38 µM
  TGI: 7.45 µM
[36]
  GI50: 1.74 µM
  TGI: 22.6 µM
[37]
  GI50: 0.301 µM
  TGI: 3.48 µM
[38]
  GI50: 2.78 µM
  TGI: > 100 µM
[39]
  GI50: 1.58 µM
  TGI: 37.5 µM
[40]
  GI50: 1.19 µM
  TGI: 6.82 µM
[41]
  GI50: 2.5 µM
  TGI: 24 µM
[42]
  GI50: 1.6 µM
  TGI: 36.4 µM
[56]
  GI50: 2.07 µM
  TGI: > 100 µM
[43]
  GI50: 0.942 µM
  TGI: 40.9 µM
[44]
  GI50: 1.81 µM
  TGI: 12.7 µM
[45]
  GI50: 2.46 µM
  TGI: 11.1 µM
[46]
  GI50: 0.781 µM
  TGI: 11.6 µM
[47]
  GI50: 1.15 µM
  TGI: 17.3 µM
[48]
  GI50: 2.8 µM
  TGI: 16.7 µM
[49]
  GI50: 0.289 µM
  TGI: 3.45 µM
[57]
  GI50: 1.76 µM
  TGI: 5.54 µM
[50]
  GI50: 0.907 µM
  TGI: 7.86 µM
[51]
  GI50: 2.61 µM
  TGI: > 100 µM
[52]
  GI50: 1.84 µM
  TGI: 3.99 µM
[53]
  GI50: 2.21 µM
  TGI: 12.8 µM
[54]
  GI50: 1.64 µM
  TGI: 11 µM

— PubChem BioAssay (NCI)
